Assay results as given in patent US20200129499A1, “COMBINATION OF TASQUINIMOD OR A PHARMACEUTICALLY ACCEPTABLE SALT THEREOF AND A PD-1 AND/OR PD-L1 INHIBITOR, FOR USE AS A MEDICAMENT” (ACTIVE BIOTECH AB, priority 2015, published 2020).

How the values were obtained:
MBT-2 tumors = test: Differential mRNA expression (qRT-PCR) in established MBT-2 tumors (Table S1); assay type: in vivo, mouse
Description: The relative mRNA expression of different genes was examined in MBT-2 tumors of treated animals with tasquinimod as compared to control group. Treatment started at day 11 post-tumor cell inoculation and qRT-PCR analysis was performed at day 15. Results are represented as mean fold-change compared with control. P values were evaluated using student test.
RNA extraction of murine CD1 1b+ was performed using the PicoPure® RNA Isolation Kit (Life Technologies). RNA in tumors was isolated from 100 μ ? -thick cryosections of OCT-embedded tumors using Trizol Reagent (Life Technologies). cDNAs were prepared using the High-Capacity cDNA Reverse Transcription Kit (Life Technologies) following the manufacturer's instructions. cDNA from CD1 1b+ isolated cells was pre-amplified (14 cycles) using the TaqMan PreAmp Master Mix (Life Technologies). Real time PCR (q-PCR) was performed with a two-step PCR protocol (95° C. for 10 min, followed by 40 cycles at 95° C. for 15 s and 60° C. for 1 min) using Taqman gene expression (Life Technologies). The probes that were used are documented in Table S2. Hmbs was used as “housekeeping” gene whose expression was correlated to other housekeeping quantified genes (e.g. Cyclophilin A). Expression levels were calculated as normalized ACt expression values between target gene and “housekeeping” genes.

PD-L1 in CD1 1b+ cells = test: FACS analysis of PD-L1 on tumor CD11b+ myeloid cells; assay type: in vivo, mouse
Description: FIG. 3: Median Fluorescence Intensity (MFI) of PD-L1 in CD1 1b+ cells derived from mice bearing tumors treated with tasquinimod. The mice were treated with 30 mg/kg p.o. of tasquinimod twice daily from day 10 after tumor inoculation. Tasquinimod treatment was carried out for 7 days. This analysis was done by cytometry.
FIG. 4: Treatment with tasquinimod had no effect on established MBT-2 tumor growth and induced an alteration in the profile of PD-1/PD-L1 axis. (A) Growth curves and (B) tumor weight of MBT-2 tumors treated with tasquinimod at 30 mg/kg (oral gavage, twice daily) after randomization at day 11 post tumor-cell inoculation (n=12). Mice were sacrificed. Tumors were harvested, digested and then subjected to surface staining. […] (D) Quantitative data of the Median Fluorescence Intensity of PD-L1 gated on infiltrating myeloid cells CD1 1b+ (*, P<0.05; Mann-Whitney test, n=5 mice per group).
Mice were treated as described in Example 1. […] Cells were analyzed by Fortessa X-20 (BD Biosciences).
Single cell suspensions were prepared from tumors by incubating the tumors cross-cut into small pieces in 8 mg/ml Collagenase IV (Life Technologies) and 0.1% DNase (Sigma-Aldrich) for 45 min at 37° C. […] Data were analyzed using FlowJo software (Tree Star Inc.). […] This procedure yielded predominantly CD1 1b+ cells with purity greater than 80% as assessed by FACS analysis.

[1] = tasquinimod 30 mg/kg from day 11, qRT-PCR at day 15

COc1cccc2c1c(O)c(C(=O)N(C)c1ccc(C(F)(F)F)cc1)c(=O)n2C [tasquinimod, 4-hydroxy-5-methoxy-N,1-dimethyl-2-oxo-N-[4-(trifluoromethyl)phenyl]-1,2-dihydroquinoline-3-carboxamide]
mRNA expression of PD-L1 in MBT-2 tumors (MBT-2 tumors; established tumors, tasquinimod 30 mg/kg): increased
Fold change tasquinimod/control, CCL5 mRNA (MBT-2 tumors; [1]): 0.88
Fold change tasquinimod/control, CCL7 mRNA (MBT-2 tumors; [1]): 0.90
Fold change tasquinimod/control, Ccl2 mRNA (MBT-2 tumors; [1]): 0.86
Fold change tasquinimod/control, Cd274/PD-L1 mRNA (MBT-2 tumors; [1]): 1.46
Fold change tasquinimod/control, Cxcl5 mRNA (MBT-2 tumors; [1]): 2.31
Fold change tasquinimod/control, Cxcl9 mRNA (MBT-2 tumors; [1]): 0.80
Fold change tasquinimod/control, Cxcl11 mRNA (MBT-2 tumors; [1]): 1.63
Fold change tasquinimod/control, II-12b mRNA (MBT-2 tumors; [1]): 1.71
Fold change tasquinimod/control, Ifng mRNA (MBT-2 tumors; [1]): 1.53
Fold change tasquinimod/control, Mrc1/CD206 mRNA (MBT-2 tumors; [1]): 0.90
Fold change tasquinimod/control, Nos2 mRNA (MBT-2 tumors; [1]): 1.76
Fold change tasquinimod/control, Serpinb2 mRNA (MBT-2 tumors; [1]): 3.65
Fold change tasquinimod/control, Tnf mRNA (MBT-2 tumors; [1]): 1.19
median fluorescence intensity of PD-L1 expressed on myeloid cells (PD-L1 in CD1 1b+ cells; 30 mg/kg p.o. twice daily from day 10 for 7 days, FIG. 3): increase
expression of PD-L1 gated on CD1 1b+ cells (PD-L1 in CD1 1b+ cells; established MBT-2 tumors, tasquinimod 30 mg/kg, day 15, FIGS. 4C and D): increase
